Results reported in patent US11492347B2 (ENYO PHARMA, priority 2018, dated 2022).
pEC50, pIC50: −log10 of the molar value.

Experiments:
[1] = test system: NFκB; assay: NFκB reporter assay, TNFα stimulation of A549 NFκB-NanoLuciferase reporter cells; format: cell-based; details: Homo sapiens, 4 ng/ml TNFα, NanoGlo luciferase assay 6 hours later
Excerpt: Compounds of the present invention have been tested for their capacity to inhibit NFκB.
The NFκB reporter construct was made by cloning 5 NFκB responsive elements upstream of a NanoLuciferase reporter gene flanked by AAVS1 genomic sequences.
NFκB Responsive element fused with NanoLuciferase and SV40 late Poly(A) signal was amplified from pNL3.2-NFκB-Nluc (Promega) using NFKB-NLUC-F and NFKB-NLUC-R primers and inserted by Infusion (TaKaRa) in AAVS1 SA-2A-puro-pA donor plasmid (Hockemeyer et al, Nat Biotechnol. 2009, 27, 851-7) digested by Sal1. pCRISPR AAVS1-T2 expressing a guide RNA (gRNA) to target human AAVS1 (T2 target sequence) was constructed by inserting AAVS1-T2A hybridized primers in pLentiCRISPR v2-blast (Sanjana et al, Nat Methods. 2014, 11, 783-4) digested by Bsmbl.
A549 cells were transfected by the plasmids and puromycine selected for 5 days (1 μg mL-1). Then clones were obtained by limiting dilution and selected to maximize TNF dependent NFκB-NanoLuciferase induction.
The reporter cells were seeded on a 96-well plate for overnight with DMEM including 10% FBS. Test compounds were added at varying concentrations. The cells then were treated with 4 ng/ml TNFα (Peprotech, ref E251) in DMEM+10% FBS. NanoGlo luciferase assay (Promega) was carried out 6 hours later. Luminescence was measured using a Spark 20M spectrofluorimeter (Tecan). Values were normalized to the luminescence measured in untreated cells.

[2] = test system: H1N1 (influenza A/New Caledonia/20/99); assay: microbe, parasite or virus in culture; format: cell-based; details: H1N1, A549, 48 h
[3] = target: T1, CISD1 Gene Product (mitoNEET) (Homo sapiens, UniProt Q9NZ45); assay: Stability of Fe-S cluster binding of purified NEET protein (absorbance 458 nm); format: biochemical; details: for Time (in minutes) to achieve 50% loss of bound cluster (Absorbance 458 nm) / Residual cluster bound at end of experiment (Percentage Absorbance 458 nm at time zero): mitoNEET 20 μM, compound 60 μM; for Time (in minutes) to achieve 50% loss of bound cluster (Absorbance 458 nm): pH 6, 37° C., run time 180 minutes, vehicle control 80; for Residual cluster bound at end of experiment (Percentage Absorbance 458 nm at time zero): pH 6, at 180 minutes, vehicle control 16%; for Stabiliser or destabiliser of Fe-S cluster binding by CISD1 Gene Product (mitoNEET): time to 50% cluster loss changed by more than 25% compared to the Control sample, at the concentrations tested
T1 sequence (Q9NZ45 33-108 limits assumed): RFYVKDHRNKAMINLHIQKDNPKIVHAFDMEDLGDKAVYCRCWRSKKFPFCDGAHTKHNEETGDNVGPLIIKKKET
Experimental: (§1) The modulator effect on the NEET proteins encoded by human CISD1, CISD2, and CISD3 genes by the compounds of the invention has been tested and is reported below. Particularly, the biochemical function of the NEET proteins is measured by the stability of Fe—S cluster binding of the purified NEET proteins.
(§2) The Fe—S cluster binding capacity of NEET proteins is known to be coordinated by four amino-acids in a stretch of 16 (three Cysteine and one Histidine). As the lability of the Fe—S cluster of NEET proteins is sensitive to the environment, cluster stability measurements are one of the measures of interactions of NEET proteins with small molecules and compounds. NEET protein/2Fe-2S cluster stability can be assessed by monitoring the decay in absorbance of its characteristic 458-nm peak (characteristic of the oxidized 2Fe-2S cluster) over time. Each NEET protein (mitoNEET, NAF-1 and Miner 2) was tested for its Fe—S binding in the absence or presence of a compound according to the invention (see table 4 below). The rate of cluster release (time in minutes to achieve 50% loss of bound Fe—S cluster) was compared for each NEET protein in the presence of one of the compounds of the invention (in a 1:3 protein:compound molar ratio) relative to each protein alone.
(§3) At pH 6, all the three NEET proteins (mitoNEET, NAF-1 and Miner 2) have a characteristic rate of loss of the bound Fe—S cluster that can be measured by the decrease of absorbance at wavelength 458 nm over time, using a spectrophotometer. Thus, Bis-Tris buffer (100 mM Bis-Tris pH6, 100 mM Nacl) was used at pH 6 to dilute either DMSO (Blank sample: Bis-Tris Buffer pH 6, 66 μM DMSO), DMSO and one of the three NEET proteins (Control sample: Bis-Tris Buffer pH 6, 66 μM DMSO, 20 μM purified NEET protein) or DMSO, one of the three NEET proteins and a compound of the invention (Test sample: Bis-Tris Buffer pH 6, 66 μM DMSO, 20 μM purified NEET protein, 60 μM compound of the invention).
(§4) A reaction mix containing DMSO diluted in the Bis-Tris Buffer with or without a compound of the invention was prepared. The purified NEET protein was the last component added to the reaction mix which was then aliquoted into 4 replicates in 96 wells plates. The absorbance at wavelength 458 nm was taken at 5 minutes intervals at 37° C. with a spectrofluorimeter. The assay run time for CISD2 gene product (NAF-1) was 500 minutes and 180 minutes for both the CISD1gene product (mitoNEET) and the CISD3 gene product (Miner2).
(§5) In addition to time monitoring, residual bound Fe—S cluster to NEET protein was measured at the final point of the spectrometry assay for each Test sample and compared to the Control sample data (in parenthesis table 4). This residual binding is measured by the differential percentage between the absorbance 458 nm at time zero and the absorbance 458 nm at the end of the experiment (i.e. respectively 500 or 180 minutes as described here above), showing the percentage of NEET protein still able to bind a Fe—S cluster.
(§6) Analysis of the absorbance enables the time for which 50% loss of bound Fe—S cluster is reached (i.e. a 50% absorbance decrease at 458 nm) for each Test sample and each Control sample (in parenthesis table 4) to be determined. The data are then compared to determine whether the compound of the invention stabilizes or destabilizes the NEET protein/Fe—S cluster binding.

[4] = target: T2, CISD2 Gene Product (NAF-1) (Homo sapiens, UniProt Q8N5K1); assay: as above; format: biochemical; details: for Time (in minutes) to achieve 50% loss of bound cluster (Absorbance 458 nm) / Residual cluster bound at end of experiment (Percentage Absorbance 458 nm at time zero): NAF-1 20 μM, compound 60 μM; for Time (in minutes) to achieve 50% loss of bound cluster (Absorbance 458 nm): pH 6, 37° C., run time 500 minutes, vehicle control 310 or 210; for Residual cluster bound at end of experiment (Percentage Absorbance 458 nm at time zero): pH 6, at 500 minutes, vehicle control 3%; for Stabiliser or destabiliser of Fe-S cluster binding by CISD2 Gene Product (NAF-1): time to 50% cluster loss changed by more than 25% compared to the Control sample, at the concentrations tested
T2 sequence (Q8N5K1 57-135 limits assumed): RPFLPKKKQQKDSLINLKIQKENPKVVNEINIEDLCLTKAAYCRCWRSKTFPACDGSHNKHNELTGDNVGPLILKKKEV
Experimental: as §1, §2, §3, §4, §5, §6

[5] = target: T3, CISD3 Gene Product (Miner2) (Homo sapiens, UniProt P0C7P0); assay: as above; format: biochemical; details: for Residual cluster bound at end of experiment (Percentage Absorbance 458 nm at time zero): CISD3 gene product 20 μM, pH 6, at 180 minutes, vehicle control 11%; for Residual cluster bound at end of experiment (Percentage Absorbance 458 nm at time zero) / Time (in minutes) to achieve 50% loss of bound cluster (Absorbance 458 nm): compound 60 μM; for Time (in minutes) to achieve 50% loss of bound cluster (Absorbance 458 nm): Miner2 20 μM, pH 6, 37° C., run time 180 minutes, vehicle control 60; for Stabiliser or destabiliser of Fe-S cluster binding by CISD3 Gene Product (Miner2): time to 50% cluster loss changed by more than 25% compared to the Control sample, at the concentrations tested
T3 sequence (P0C7P0 15-127): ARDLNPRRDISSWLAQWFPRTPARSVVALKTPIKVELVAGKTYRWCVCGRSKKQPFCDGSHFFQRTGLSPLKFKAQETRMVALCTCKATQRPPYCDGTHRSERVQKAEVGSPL
Experimental: as §1, §2, §3, §4, §5, §6

| Structure (SMILES) | pEC50 [1] | pIC50 [2] | Time (in minutes) to achieve 50% loss of bound cluster (Absorbance 458 nm) [3] | Residual cluster bound at end of experiment (Percentage Absorbance 458 nm at time zero) [3] | Time (in minutes) to achieve 50% loss of bound cluster (Absorbance 458 nm) [4] | Residual cluster bound at end of experiment (Percentage Absorbance 458 nm at time zero) [4] | Residual cluster bound at end of experiment (Percentage Absorbance 458 nm at time zero) [5] | Time (in minutes) to achieve 50% loss of bound cluster (Absorbance 458 nm) [5] | Stabiliser or destabiliser of Fe-S cluster binding by CISD3 Gene Product (Miner2) [5] | Stabiliser or destabiliser of Fe-S cluster binding by CISD1 Gene Product (mitoNEET) [3] | Stabiliser or destabiliser of Fe-S cluster binding by CISD2 Gene Product (NAF-1) [4] |
| --- | --- | --- | --- | --- | --- | --- | --- | --- | --- | --- | --- |
| CC1(C)CCc2sc(NC(=O)c3ccc(NCC4CCOCC4)cc3)c(C(=O)O)c2C1 [#164, 5,5-Dimethyl-2-[[4-(tetrahydropyran-4-ylmethylamino)benzoyl]amino]-6,7-dihydro-4H-benzothiophene-3-carboxylic acid] | 7.05 | 7.80 |  |  |  |  |  |  |  |  |  |
| CC1(C)CCc2c(sc(NC(=O)c3ccccc3)c2C(=O)O)C1 [Compound #15, 2-Benzamido-6,6-dimethyl-5,7-dihydro-4H-benzothiophene-3-carboxylic acid] | 6.82 | 7.22 |  |  |  |  |  |  |  |  |  |
| COc1ccc(C(=O)Nc2sc3c(c2C(=O)O)CCC(C)(C)C3)c(F)c1 [Compound #16, 2-[(2-Fluoro-4-methoxybenzoyl)amino]-6,6-dimethyl-5,7-dihydro-4H-benzothiophene-3-carboxylic acid] | 6.82 | 7.36 |  |  |  |  |  |  |  |  |  |
| COc1ccc(C(=O)Nc2sc3c(c2C(=O)O)CCC(C)(C)C3)cc1 [Compound #20, 2-[(4-Methoxybenzoyl)amino]-6,6-dimethyl-5,7-dihydro-4H-benzothiophene-3-carboxylic acid] |  | 7.13 | 65 (80) minutes | 0% (16%) | 300 (310) minutes | 4% (3%) | 9% (11%) | 35 (60) minutes | Destabilisers |  |  |
| CC1(C)Cc2c(sc(NC(=O)c3ccccc3)c2C(=O)O)C(C)(C)C1 [Compound #33, 2-Benzamido-5,5,7,7-tetramethyl-4,6-dihydrobenzothiophene-3-carboxylic acid] | 6.40 | 7.46 |  |  |  |  |  |  |  |  |  |
| CC1(C)CCc2sc(NC(=O)c3ccc(NC4CCOCC4)cc3)c(C(=O)O)c21 [Compound #62, 4,4-Dimethyl-2-[[4-(tetrahydropyran-4-ylamino)benzoyl]amino]-5,6-dihydrocyclopenta[b]thiophene-3-carboxylic acid] | 6.42 | 7.30 |  |  |  |  |  |  |  |  |  |
| CN(c1ccc(C(=O)Nc2sc3c(c2C(=O)O)CC(C)(C)CC3(C)C)cc1)C1CCOCC1 [Compound #135, 5,5,7,7-Tetramethyl-2-[[4-[methyl(tetrahydropyran-4-yl)amino]benzoyl]amino]-4,6-dihydrobenzothiophene-3-carboxylic acid] |  | 8.21 | 100 (80) minutes | 24% (16%) | 160 (310) minutes | 16% (3%) | 20% (11%) | 80 min | Stabilisers | stabilisers | destabilisers |
| CC1CC(C)(C)Cc2sc(NC(=O)c3ccc(NC4CCOCC4)cc3)c(C(=O)O)c21 (stereo not shown) [Compound #136, 4,6,6-Trimethyl-2-[[4-(tetrahydropyran-4-ylamino)benzoyl]amino]-5,7-dihydro-4H-benzothiophene-3-carboxylic acid] |  | 7.92 | 75 (80) minutes | 2% (16%) | 325 (310) minutes | 5% (3%) | 10% (11%) | 45 (60) minutes | Destabilisers |  |  |
| CC1(C)Cc2c(sc(NC(=O)c3ccc(Br)cc3)c2C(=O)O)C(C)(C)C1 [Compound #138, 2-[(4-Bromobenzoyl)amino]-5,5,7,7-tetramethyl-4,6-dihydrobenzothiophene-3-carboxylic acid] |  | 8.06 |  | 53% (16%) | 435 (210) minutes | 30% (3%) | 66% (11%) |  | Stabilisers | stabilisers | Stabilisers |
| COC1CN(c2ccc(C(=O)Nc3sc4c(c3C(=O)O)CCC(C)(C)C4)cc2)C1 [Compound #147, 2-[[4-(3-Methoxyazetidin-1-yl)benzoyl]amino]-6,6-dimethyl-5,7-dihydro-4H-benzothiophene-3-carboxylic acid] |  | 7.95 | 75 (80) minutes | 11% (16%) | 85 (310) minutes | 5% (3%) | 10% (11%) | 60 (60) minutes |  |  | destabilisers |
